ChEMBL document CHEMBL3507680, “University of Dundee, Gates Library screen for HepG2 cell viability”
Where “and” joins values, the source holds several entries; their conditions need not be identical. Identical values can stand only once.

test: Human HepG2 cell viability assay in 384 well format; type: toxicity, cell-based; set-up: dose 125 nL, time 70.5 hour; cytotoxicity at 70.5 h: concentration not given beside the values; settings: HepG2 cells, read-out: Inhibition

| Structure (SMILES) | cytotoxicity at 70.5 h [%] |
| --- | --- |
| CS(=O)(=O)NCCCN1CCCC1c1ccccc1 (stereo not given) | 20 |
| Cc1cnn(CC2CCCN2Cc2nnsc2Cl)c1 (stereo not given) | 31.9 |
| O=C(c1ccc2c(c1)COC2)N1CCN(CC2CC2)CC1 | -7.78 |
| CCCc1cc(C(=O)N2CCCC(n3ccnc3C)C2)[nH]n1 (stereo not given) | 32.7 |
| c1ncn(CC2CCCN(Cc3nc(C4CC4)no3)C2)n1 (stereo not given) | 31.5 |
| COc1ccsc1C(=O)N1CCCC(n2nc(C)nc2C)C1 (stereo not given) | 3.22 |
| CCCc1n[nH]c(C2CN(Cc3nnc(C4CC4)o3)CCO2)n1 (stereo not given) | 8.7 |
| COc1ccc(CCN2CCCC2Cn2nc(C)nc2C)cc1 (stereo not given) | 17.7 |
| Cc1ccoc1-c1nnc(CNCCn2cccn2)o1 | 31.8 |
| CCc1n[nH]c(C2CN(C(=O)c3cc4c(s3)CCCC4)CCO2)n1 (stereo not given) | 4.71 |
| CN1CCOC(CNCc2coc(-c3ccccc3)n2)C1 (stereo not given) | -0.149 |
| CN1CCOC(CNCCc2ccccn2)C1 (stereo not given) | -1.1 |
| Cc1ccc(S(=O)(=O)NC(=O)c2cccc(OCC(N)=O)c2)s1 | -3.78 |
| COc1cccc(-n2c(C)cc(C(=O)O)c2C)c1 | -5.75 |
| CC1CCCN(C(=O)CCc2cccnc2)C1 (stereo not given) | -3.28 |
| N#Cc1cnn(-c2ccc(C(=O)Nc3ccccn3)cc2)c1N | 25.3 |
| COc1ccccc1C(O)CNC(=O)NCc1cccnc1OC (stereo not given) | 6.04 |
| Cn1c(NCC(O)c2ccc(F)cc2F)c(C#N)c(=O)n(C)c1=O (stereo not given) | -5.92 |
| COc1ccccc1C(O)CNC(=O)Nc1ncccc1C (stereo not given) | 7.49 |
| CC(NC(=O)NCCn1ccnc1)c1ccc2c(c1)NC(=O)CO2 (stereo not given) | -0.375 |
| NC(=O)c1ccc(S(=O)(=O)NC2CCN(Cc3ccccc3)C2=O)cc1 (stereo not given) | -8.89 |
| c1coc(-c2nnc(CN3CCOC(Cn4cccn4)C3)o2)c1 (stereo not given) | 6.43 |
| COc1ccc(NC(=O)c2ccc(-n3ncc(C#N)c3N)cc2)cn1 | 3.5 |
| Cc1cccc(C2(CNC(=O)CCN3C(=O)CCC3=O)CCCC2)c1 | 21 |

| Structure (SMILES) | cytotoxicity at 70.5 h [%] |
| --- | --- |
| CC(C)c1n[nH]c(C(=O)Nc2cc[nH]n2)c1Br | 7.8 |
| COc1ccc(C2=CCN(C(=O)CN(C)CC(C)C#N)CC2)cc1 (stereo not given) | 44.4 |
| CN1CCOC(CNCc2cccc(OCC(F)(F)F)c2)C1 (stereo not given) | -1.74 |
| CN1CCOC(CNCc2cccc(OCc3ccccn3)c2)C1 (stereo not given) | -3.38 |
| Cc1nc(C)n(CC2CCCN2CCOc2ccc(C#N)cc2)n1 (stereo not given) | 6.36 |
| Fc1ccc(-c2cnc(CN3CCCC3Cn3cccn3)o2)cc1 (stereo not given) | -8.12 |
| OC(CN1CCC(c2ccn[nH]2)CC1)c1cccc(F)c1 (stereo not given) | -28.7 |
| CS(=O)(=O)c1ccc(C(O)CN2CCC(c3ccn[nH]3)CC2)cc1 (stereo not given) | -17.4 |
| Cc1noc(CN2CCC(c3ccnn3CCO)CC2)n1 | -13.4 |
| CCCNC(=O)CNc1cc(C#N)ccc1OCC | 14.1 |
| Cc1ccn(-c2ccc(C(=O)N3CCCC(C(N)=O)C3)cc2)n1 (stereo not given) | -9.79 |
| CN(Cc1cnn(C)c1)C(=O)NCc1nnc2n1CCC2 | -25.4 |
| N#Cc1ccc(OCCCN2CCc3cncnc3C2)cc1 | -0.112 |
| CC1=NN(c2ccc(C(=O)N3CCCC(n4ccnc4)C3)cc2)CC1 (stereo not given) | -17.1 |
| Cc1cccc(NC2CCN(C(=O)Nc3cc(F)cc(F)c3)CC2)n1 | 42.8 |
| Cn1cnc2c1CCN(CCCOc1ccc(C#N)cc1)C2 | -10.6 |
| Cc1cc(C2CCCN(CCCNS(C)(=O)=O)C2)n[nH]1 (stereo not given) | -25.3 |
| Cc1cc(C2CCCN(CCc3ccccn3)C2)n[nH]1 (stereo not given) | -17 |
| Cc1noc(C(C)C)c1C(=O)NCC(c1cccc(F)c1)N(C)C (stereo not given) | -21.3 |
| Cc1cnn(CC2CCCN2C(=O)CCc2nc3ccccc3[nH]2)c1 (stereo not given) | -15.5 |
| O=C(CCc1nccs1)N1CCN(c2ccccc2F)CC1 | 34.9 |
| Cc1noc2ncc(C(=O)N3CCCC3c3cnn(C)c3)cc12 (stereo not given) | -6.59 |
| Cc1ccc2nc(CNCCCOc3ccccc3)cc(O)c2c1 [UCSF924] | -2.02 |

same assay, conditions: hepg2, 70.5 h, 70.5 h

| Structure (SMILES) | Inhibition |
| --- | --- |
| CC1=Nc2c(c(=O)[nH]n2C(C)C)C(c2ccsc2)S1 (stereo not given) | -5.291% and -4.016% |
| CC1=Nc2c(c(=O)[nH]n2C2CCCCC2)C(c2ccc(C(=O)O)cc2)S1 (stereo not given) | -14.53% and -17.54% |
| Cc1cc(NC(=O)C(C)Cn2cncn2)no1 (stereo not given) | 6.977% and -4.493% |
